Laboratory results: patent US12187672B2, “1,2-diacylglycerol compound, preparation method therefor, and immunomodulator containing same as active ingredient” (ENZYCHEM LIFESCIENCES CORPORATION, priority 2018, dated 2025)

Tests used:
IL-6 = assay: LPS-induced IL-6 secretion reduction in RAW264.7 cells (ELISA); assay type: cell-based, mouse; conditions: sample 100 μg/ml 1 h, then LPS 1 μg/ml 24 h, Table 3
Protocol: In DMEM (Dulbecco Modified Eagle Medium, Hyclone, Thermo Scientific) medium to which 10% Fetal Bovine Serum was added, RAW264.7 cells, a mouse macrophage family, were suspended at a concentration of 1×10^5 cells/ml, and culture was conducted in a 5% CO2 humidified incubator at 37° C. The cultured RAW264.7 cells were inoculated into a 48 well plate by 5×10^4 cells/ml and stabilized for 15 hours. Then, the culture solution was treated with a glycerol derivative compounds of the type shown in Table 2 and 3 below for 1 hour and then was treated with 1 μg/ml of Lipopolysaccaride (LPS) of a cell stimulator, and subsequent further incubation was conducted for 24 hours. Thereafter 0.5 ml of the culture supernatant was collected for each well and centrifuged (at 3000 rpm, 5 minutes) to recover the supernatant. The IL-6 level in the recovered supernatant was measured according to the manual provided by the Mouse IL-6 ELISA set (BD Biosciences). The day before ELISA was carried out, the IL-6 capture antibody was diluted in phosphate buffered saline, coated on a microwell, and then stored at 4° C. overnight. Each well was washed three times with a buffer solution and then blocked with 2% Bovine Serum Albumin (BSA) for 1 hour at room temperature. After washing with buffer solution three times, […] of sample was dispensed into each well and left at room temperature for 2 hours. Detection antibody which was washed 3 times with washing buffer solution and diluted was dispensed into each well and allowed to react at room temperature for 1 hour and left at room temperature for 1 hour. Thereafter, the secondary HRP conjugated antibody was reacted at room temperature for 30 minutes, washed three times with a buffer solution, and treated with 50 μl of stop solution for each well, and then the optical density was measured at 450 nm with an ELISA microplate leader. The results of the IL-6 expression reduction rate (IL-6 concentration) are shown in Table 2, Table 3, FIG. 1 and FIG. 2 below.

STAT3 [1] = assay: STAT3 activity, pGL4.47 SIE luciferase reporter in LPS-treated RAW264.7 cells; assay type: cell-based, mouse; conditions: sample 100 μg/ml 1 h, then LPS 1 μg/ml 18 h
Protocol: pGL4.47 [luc2P/SIE/Hygro] vector containing the sis-Inducible Element that binds to STAT3 was injected into RAW264.7 cells to confirm the degree of STAT3 activity. In DMEM (Hyclone, Thermo Scientific) medium to which 10% Fetal Bovine Serum was added, RAW264.7 cells were cultured at a concentration of 1×10^5 cells/ml, and maintained in a 5% CO2 humidified incubator at 37° C. The cultured RAW264.7 cells were inoculated into a 48 well plate by 1×10^5 cells/ml and stabilized for 18 hours. Thereafter, the pGL4.47 [luc2P/SIE/Hygro] vector containing sis-Inducible Element was mixed with Attractene to induce complex formation at room temperature for 15 minutes. This complex was treated with the cells and then further incubated for 18 hours. Thereafter, the culture solution was treated with a glycerol derivative compounds of the type shown in Table 5 below for 1 hour and then LPS (1 μg/ml) was treated and further incubated for 18 hours for STAT3 activity. Thereafter, the culture supernatant was removed for each well, and the remaining cells were lysed with a cell lysis buffer, and then cell lysate was recovered. 90 μl of luciferase reagent was mixed with 10 μl of the recovered cell lysate, and the degree of fluorescence was confirmed using a luminometer.

STAT6 = assay: IL-4-induced STAT6 activity, pGL4-STAT6 luciferase reporter in A549 cells; assay type: cell-based
Protocol: In DMEM (Dulbecco Modified Eagle Medium, Hyclone, Thermo Scientific) medium to which 10% Fetal Bovine Serum was added, A549 cells were subcultured at a concentration of 1×10^5 cells/ml, and culture was conducted in a 5% CO2 humidified incubator at 37° C. The cultured A549 cells were inoculated into a 48 well plate by 1×10^5 cells/ml and stabilized for 18 hours. Thereafter, pGL4-STAT6 reporter vector containing a STAT6 binding promoter portion was mixed with Attractene to induce complex formation at room temperature for 15 minutes. This complex was treated with the cells and then further incubated for 24 hours. Thereafter, the culture solution was treated with a glycerol derivative compounds of the type shown in Table 9 and 10 below for 1 hour, and then IL-4 (2 ng/ml or 10 ng/ml) was further incubated for 20 hours for STAT6 activity. Thereafter, the culture supernatant was removed for each well, and the remaining cells were lysed with a cell lysis buffer, and then cell lysate was recovered. 90 μl of luciferase reagent was mixed with 10 μl of the recovered cell lysate, and the degree of fluorescence was confirmed using a luminometer. The results are shown in Table 9, Table 10, FIG. 9 and FIG. 10 below.

IL-4 = assay: PKC activator-induced IL-4 secretion reduction in EL-4 cells (ELISA); assay type: cell-based, mouse; conditions: sample 100 μg/ml 2 h, then PKC activator 18 h, Table 12
Protocol: In DMEM (Dulbecco Modified Eagle Medium, Hyclone, Thermo Scientific) medium to which 10% Fetal Bovine Serum was added, EL-4 cells, a mouse lymphoma family, were subcultured at a concentration of 1×10^5 cells/ml, and culture was conducted in a 5% CO2 humidified incubator at 37° C. The cultured EL-4 cells were inoculated into a 48 well plate by 5×10^4 cells/ml and stabilized for 30 hours. Then, the culture solution was treated with a glycerol derivative compounds of the type shown in Table 11 and 12 below for 2 hours. Thereafter, it were treated with 0.5 μg/ml of PKC activator (p10, some kind of PMA) of a cell stimulator, and subsequent further incubation were conducted for 18 hours. Thereafter 0.5 ml of the culture supernatant was collected for each well and centrifuged (at 3000 rpm, 5 minutes) to recover the supernatant. The IL-4 level in the recovered supernatant was measured according to the manual provided by the Mouse IL-4 ELISA set (BD Biosciences). The day before ELISA was carried out, the IL-4 capture antibody was diluted in phosphate buffered saline, coated on a microwell, and then stored at 4° C. overnight. Each well was washed three times with a buffer solution and then blocked with 2% Bovine Serum Albumin (BSA) for 1 hour at room temperature. After washing with buffer solution three times, 100 μl of sample was dispensed into each well and left at room temperature for 2 hours. Detection antibody which was washed 3 times with washing buffer solution and diluted was dispensed into each well and allowed to react at room temperature for 1 hour and left at room temperature for 1 hour. Thereafter, the secondary HRP conjugated antibody was reacted at room temperature for 30 minutes, washed three times with buffer solution, and treated with 50 μl of stop solution for each well, and then the optical density was measured at 450 nm with an ELISA microplate leader. The results of the measured expression reduction rate ([…]) were shown in Table 11, Table 12, FIG. 11 and FIG. 12 below.

CXCL8 (IL-8) = CXCL8 (IL-8) expression reduction in Gemcitabine-treated THP-1 cells (ELISA); assay type: cell-based, human; conditions: for CXCL8 [IL-8] concentration (average ± deviation): THP-1 cells
Protocol: In RPMI (Hyclone, Thermo Scientific) medium to which 10% Fetal Bovine Serum was added, THP-1 cells, a human macrophage family, were suspended at a concentration of 1×10^5 cells/ml, and culture was conducted in a 5% CO2 humidified incubator at 37° C. The cultured THP-1 cells were inoculated into a 12 well plate by 1×10^6 cells/ml and stabilized for 30 minutes. Then, the culture solution was treated with a glycerol derivative compounds of the type shown in Table 6 below for 1 hour and then was treated with Gemcitabine (2 μg/ml) of a cell stimulator, and subsequent further incubation was conducted for 24 hours. Thereafter 1.5 ml of the culture supernatant was collected for each well and centrifuged (at 3000 rpm, 5 minutes) to recover the supernatant. The CXCL8 (IL-8) level in the recovered supernatant was measured according to the manual provided by the human IL-8 ELISA set (BD Biosciences). The day before ELISA was carried out, the IL-8 capture antibody was diluted in phosphate buffered saline, coated on a microwell, and then stored at 4° C. overnight. Each well was washed three times with a buffer solution and then blocked with 2% Bovine Serum Albumin (BSA) for 1 hour at room temperature. After washing with washing buffer solution three times, 100 μl of sample was dispensed into each well and left at room temperature for 2 hours. Detection antibody which was washed 3 times with washing buffer and diluted was dispensed into each well and allowed to react at room temperature for 1 hour and left at room temperature for 1 hour. Thereafter, the secondary HRP conjugated antibody was reacted at room temperature for 30 minutes, washed three times with a washing buffer, and treated with 50 μl of stop solution for each well, and then the optical density was measured at 450 nm with an ELISA microplate leader.

HL-60 cells = assay: Migration of HL-60 cell line toward THP-1 culture supernatant (transmigration assay); assay type: cell-based, human
Protocol: In RPMI (Hyclone, Thermo Scientific) medium to which 10% Fetal Bovine Serum was added, THP-1 cells, a human macrophage family, were subcultured at a concentration of 1×10^5 cells/ml, and culture was conducted in a 5% CO2 humidified incubator at 37° C. In order to prepare the THP-1 cell culture solution to be treated in the lower well during the transmigration assay, first, the cultured THP-1 cells were inoculated into a 12 well plate by 1×10^6 cells/ml and stabilized for 30 minutes. Then, the culture solution was treated with a glycerol derivative compounds of the type shown in Table 7 below for 1 hour and then was treated with Gemcitabine (2 μg/ml) of a cell stimulator, and subsequent further incubation was conducted for 24 hours. Thereafter 1.5 ml of the culture supernatant was collected for each well and centrifuged (at 3000 rpm, 5 minutes) to recover the supernatant. The CXCL8 (IL-8) level in the recovered supernatant was measured according to the manual provided by Cultrex 96 well Laminin Cell Invasion assay. The day before Transmigration assay was carried out, a 1× Lamin I solution was treated in the upper Invasion Chamber and coated. Thereafter, in RPMI (Hyclone, Thermo Scientific) medium to which 10% Fetal Bovine Serum was added, the cultured HL-60 cells were despensed of 5×10^4 cells/chamber, and 150 μl of the THP-1 culture supernatant prepared in advance was added to the lower chamber. Thereafter the upper chamber was removed, and the cells were attached to the bottom of the lower chamber by a centrifuge, and then the supernatant was removed. Cell dissociation/Calcein-AM solution was added and reacted for 1 hour. Then, the value obtained using a fluorescence spectroscopy was calculated by converting the number of cells.

STAT3 [2] = assay: IL-6-induced STAT3 activity, SEAP expression in HEK-Blue IL-6 cells; assay type: cell-based
Protocol: HEK-Blue™ IL-6 cells were used to confirm STAT3 activity by STAT3-induced SEAP (secreted embryonic alkaline phosphatase) expression. In DMEM (Hyclone, Thermo Scientific) medium to which 10% Fetal Bovine Serum was added, HEK-Blue™ IL-6 cells were cultured at a concentration of 1×10^5 cells/ml, and maintained in a 5% CO2 humidified incubator at 37° C. The cultured HEK-Blue™ IL-6 cells were inoculated by 1×10^5 cells/ml. Then, the culture solution was treated with a glycerol derivative compounds of the type shown in Table 4 below for 1 hour and then IL-6 (5 ng/ml) was further incubated for 24 hours for STAT3 activity. Thereafter, the culture supernatant was collected for each well and centrifuged (at 3000 rpm, 5 minutes) to recover the supernatant. The SEAP expression level in the recovered supernatant was mixed with Quanti blue reagent and the supernatant at a ratio of 1:10 and left at 37° C. for about 30 minutes. Then, the SEAP concentration was confirmed at 650 nm wavelength using a spectrophotometer, and the results (STAT3 activity inhibitory ability) thereof are shown in Table 4 and FIG. 3 below.

[3] = sample 100 μg/ml 1 h, then IL-4 (10 ng/ml) 20 h, Table 10
[4] = THP-1 cells treated with Gemcitabine

Molecule | IL-6 concentration (average ± deviation) (IL-6) | STAT3 activity_Luciferase activity (average ± deviation) (STAT3 [1]) | STAT6 activity_Luciferase activity (average ± deviation) (STAT6; [3]) | IL-4 concentration (average ± deviation) (IL-4) | also measured
CCCCC/C=C\C/C=C\CCCCCCCC(=O)OC(COC(=O)CCCCCCCCCCC)COC(=O)C(C)(C)C (stereo not drawn) [EC_A95] | 0.777 ± 0.020 pg/µL | 663 ± 61.5 | 13649.0 ± 7369.3 | 680.1 ± 12.2 pg/µL | –
CCCCC/C=C\C/C=C\CCCCCCCC(=O)OC(COC(=O)CCCCCCCCCCC)COC(=O)C(C)C (stereo not drawn) [EC_A94] | 0.702 ± 0.079 pg/µL | 640 ± 275.7 | 14677.5 ± 2168.7 | 523.8 ± 62.3 pg/µL | –
Nc1ccn([C@@H]2O[C@H](CO)[C@@H](O)C2(F)F)c(=O)n1 [Gemcitabine, reference compound] | – | – | – | – | increase of CXCL8 (IL-8) secretion compared to the negative control group (CXCL8 (IL-8); [4]): about 13 times; CXCL8 [IL-8] concentration (average ± deviation) (CXCL8 (IL-8); Gemcitabine 2 μg/ml alone): 104.6 ± 1.5 pg/µL; increase of neutrophil cell migration compared to the negative control group (HL-60 cells; [4]): about twice; Number of HL-60 cells migrated through Transwell (HL-60 cells; supernatant of THP-1 cells treated with Gemcitabine 2 μg/ml alone): 5022.9 Cell Number
CCCCC/C=C\C/C=C\CCCCCCCC(=O)OC(COC(=O)CCCCCCCC)COC(=O)CCCCCCCCCCCCCCC (stereo not drawn) [EC_A84] | 0.799 ± 0.025 pg/µL | 780 ± 27.5 | – | 615.6 ± 25.0 pg/µL | CXCL8 [IL-8] concentration (average ± deviation) (CXCL8 (IL-8); sample 100 μg/ml 1 h, then Gemcitabine 2 μg/ml 24 h): 110.5 ± 6.8 pg/µL; Number of HL-60 cells migrated through Transwell (HL-60 cells; supernatant of THP-1 cells treated with sample 100 μg/ml 1 h, then Gemcitabine 2 μg/ml 24 h): 2197.8 Cell Number
IL-6: IL-6 cytokine used to induce STAT3 activity [reference compound] | – | – | – | – | increase of STAT3 activity compared to the negative control group (STAT3 [2]; HEK-Blue IL-6 cells treated with IL-6): about 2.3 times; STAT3 activity_SEAP expression(%) (average ± deviation) (STAT3 [2]; HEK-Blue IL-6 cells, IL-6 5 ng/ml alone, negative control = 100): 228.8 ± 17.0%
IL-4: IL-4 used to induce STAT6 activity in A549 cells (protein, UniProt P05112 25-153, looked up) Interleukin-4: HKCDITLQEIIKTLNSLTEQKTLCTELTVTDIFAASKNTTEKETFCRAATVLRQFYSHHEKDTRCLGATAQQFHRHKQLIRFLKRLDRNLWGLAGLNSCPVKEANQSTLENFLERLKTIMREKYSKCSS | – | – | – | – | STAT6 activity_Luciferase activity (average ± deviation) (STAT6; IL-4 alone, concentration printed 2 (head μg/ml; method 2 ng/ml), Table 9): 982.0 ± 38.7; STAT6 activity_Luciferase activity (average ± deviation) (STAT6; IL-4 alone, concentration printed 10 (head μg/ml; method 10 ng/ml), Table 10): 22846.2 ± 2157.3
